Measured values from US20180105548A1, “A novel compound (KS-513) isolated from Pseudolysimachion rotundum var. subintegrum, the composition comprising the same preventing or treating allergic disease, inflammatory disease, asthma or chronic obstructive pulmonary disease and the use thereof” (priority 2015, published 2018).

Experiments:
Type in all cases: cell-based, mouse
IL-1beta = assay: mRNA expression of IL-1beta in RAW264.7 cell line induced by LPS (real-time PCR); details: for IL-1beta mRNA expression, Fold (value compared with a negative group) / IL-1beta mRNA expression, Inhibition ratio (IR) compared with LPS treatment group: LPS 1 μg/ml, 12 hours
Method: (§1) In order to determine the inhibitory effect on the mRNA expression of pro-inflammatory medicated enzyme such as iNOS or COX-2, and pro-inflammatory medicated cytokines such as IL-1beta, IL-6, TNF-alpha in RAW264.7 cell line induced by LPS, following test using by real-time PCR (real-time polymerase chain reaction, quantitative real time polymerase chain reaction, qPCR) was performed according to the method disclosed in the literature (Livak, K. J., Schimittgen T. D., 2001, Analysis of relative gene expression data using real-time quantitiative PCR and the 2 (-Delta Delta C(T) method, Methods 25, p 402-408):
(§2) RAW264.7 cell was inoculated into 6-well-plates in the concentration of 1×10^6 cell/well to incubate for 12 hours. Various concentration of KS-513 compound (2.5, 5, 10 and 20 μM) was pre-treated therewith and 1 μg/mL of LPS (L6529, Sigma) was added thereto to incubate for 12 hours.
(§3) To extract total RNA, RNA was extracted using by Triazol B (invitrogen) and cDNA was synthesized using by Omniscript RT kit (205113, Qiagen, Gmbh, Hilden, Germany) after the quantification. The synthesized cDNA was mixed with its template and the primers shown in Table 3 (SEQ.I.D. 1-14), performed to denaturation at 94° C. for 5 mins using by PCR mix (PCR master Mix, Bioneer, Korea), and reacted as follows: 1 cycle for pre-denaturation; at 95° C. for 30 sec, 60° C. for 45 sec, 72° C. for 45 sec, 30 cycles for denaturation; 10 mins at 72° C., 1cycle for final extension. (FIG. 2)

iNOS = iNOS protein expression in RAW264.7 cell induced by LPS (Western blot); details: 2.5, 5, 10 and 20 μM, LPS 1 μg/mL, 12 hours, FIG. 3A
Method: as §2, with “The expressed level of iNOS in RAW264.7 cell induced by LPS (1 μg/ml) was determined by using Western blot analysis. RAW264.7” for “RAW264.7”, “[…]” for “6-well-plates”
To extract protein, after washing the cell with ice-cold PBS three times, lysis buffer (50 mM Tris HCl (pH 8.0), 5 mM EDTA, 150 mM NaCl, 1% NP-40, 0.1% SDS, 1 mM PMSF, and protease inhibitor cocktail tablet (Roche, Germany, 11697498001) was added to the cell, reacted at 4° C. for 30 mins and centrifuged for 10 mins at the speed of 12,000 rpm to collect the supernatant.
The equivalent amount of the protein was isolated by SDS-PAGE and the protein was transferred to nitrocellulose membrane (BR162-0145, Bio-Rad). […] The product was reacted with ECL system and the amount of protein was determined by imaging analysis apparatus (LAS-4000, Fujifilm).
The quantitative determination of protein was performed by determining the absorbance using assay kit (Bradford protein assay kit, Thermo) at 595 nm and the result was shown in FIG. 3A.

TNF-alpha = assay: mRNA expression of TNF-alpha in RAW264.7 cell line induced by LPS (real-time PCR); details: for TNF-alpha mRNA expression, Fold (value compared with a negative group) / TNF-alpha mRNA expression, Inhibition ratio (IR) compared with LPS treatment group: LPS 1 μg/ml, 12 hours
Method: as §1, §2, §3

IL-6 = assay: mRNA expression of IL-6 in RAW264.7 cell line induced by LPS (real-time PCR); details: for IL-6 mRNA expression, Fold (value compared with a negative group) / IL-6 mRNA expression, Inhibition ratio (IR) compared with LPS treatment group: LPS 1 μg/ml, 12 hours
Method: as §1, §2, §3

RAW264.7 cell = assay: Cytotoxicity test (CCK-8) in RAW264.7 cell; details: up to 80 μM
Method: (§4) RAW264.7 cell (TIB-71, ATCC), a mouse macrophage cell, was suspended in 5% FBS (Fetal Bovine Serum)-supplemented DMEM (Dulbecco's Modified Eagle Medium, Gibco) medium in a concentration of 1×10^5 cells/ml, and 100 μL of the suspension was inoculated into 96 well plates to adhere cell to the plate for 4 hours. Various concentrations of test sample (KS 513 compound) were treated therewith and cultured for 24 hours. 10 μL of CCK-8 solution was mixed therewith according to the manufacture's manual kit (Dojindo Co. Ltd), reacted from 30 mins to 4 hours, and the absorbance of the solution was determined at […]. The cell viability was calculated according to following Math formulae 1 based on negative control group treated with 0.2% DMSO and the result was shown in Table 2.
(§5) Cell viability (%)=OD 570 nm (test group)/OD 570 nm (negative control group)×100 Math formulae 1

[1] = Cytotoxicity test (CCK-8) in RAW264.7 cell; details: mouse, RAW264.7 macrophage cells
Method: as §4, §5

[2] = various concentration, compared with control group treated with LPS (100%)

## CO[C@@H]1C[C@H]2[C@H](OC(=O)c3ccc(O)cc3)[C@@H]3O[C@]3(CO)[C@H]2[C@H](O[C@@H]2O[C@H](CO)[C@@H](O)C(O)[C@H]2O)O1 (stereo partly drawn) [KS-513, (1aS, 1bS,2S,4S,5aR,6S,6aS)-1a-(hydroxymethyl)-4-methoxy-2-(((2S,3R,5S,6R)-3,4,5-trihydroxy-6-(hydroxymethyl)tetrahydro-2H-pyran-2-yl)oxy)octahydrooxireno[2′,3′:4,5]cyclopenta[1,2-c]pyran-6-yl 4-hydroxybenzoate]
IL-1beta; 2.5 μM
  IL-1beta mRNA expression, Fold (value compared with a negative group): 10.41 ± 1.09 Fold
  IL-1beta mRNA expression, Inhibition ratio (IR) compared with LPS treatment group: 37.69%
IL-1beta; 5 μM
  IL-1beta mRNA expression, Fold (value compared with a negative group): 5.72 ± 0.24 Fold
  IL-1beta mRNA expression, Inhibition ratio (IR) compared with LPS treatment group: 65.75%
IL-1beta; 10 μM
  IL-1beta mRNA expression, Fold (value compared with a negative group): 2.56 ± 0.14 Fold
  IL-1beta mRNA expression, Inhibition ratio (IR) compared with LPS treatment group: 84.68%
IL-1beta; 20 μM
  IL-1beta mRNA expression, Fold (value compared with a negative group): 1.70 ± 0.59 Fold
  IL-1beta mRNA expression, Inhibition ratio (IR) compared with LPS treatment group: 89.85%
IL-1beta; [2]
  expressed level of mRNA of IL-1beta: significantly decreased in a dose dependent manner
iNOS
  expressed level of iNOS protein: reduced in a dose dependent manner
TNF-alpha; 2.5 μM
  TNF-alpha mRNA expression, Fold (value compared with a negative group): 9.60 ± 3.33 Fold
  TNF-alpha mRNA expression, Inhibition ratio (IR) compared with LPS treatment group: 14.34%
TNF-alpha; 5 μM
  TNF-alpha mRNA expression, Fold (value compared with a negative group): 5.34 ± 3.27 Fold
  TNF-alpha mRNA expression, Inhibition ratio (IR) compared with LPS treatment group: 52.39%
TNF-alpha; 10 μM
  TNF-alpha mRNA expression, Fold (value compared with a negative group): 2.72 ± 0.99 Fold
  TNF-alpha mRNA expression, Inhibition ratio (IR) compared with LPS treatment group: 75.69%
TNF-alpha; 20 μM
  TNF-alpha mRNA expression, Fold (value compared with a negative group): 1.49 ± 0.77 Fold
  TNF-alpha mRNA expression, Inhibition ratio (IR) compared with LPS treatment group: 86.70%
TNF-alpha; [2]
  expressed level of mRNA of TNF-alpha: significantly decreased in a dose dependent manner
IL-6; 2.5 μM
  IL-6 mRNA expression, Fold (value compared with a negative group): 24.73 ± 2.26 Fold
  IL-6 mRNA expression, Inhibition ratio (IR) compared with LPS treatment group: 20.62%
IL-6; 5 μM
  IL-6 mRNA expression, Fold (value compared with a negative group): 14.24 ± 1.44 Fold
  IL-6 mRNA expression, Inhibition ratio (IR) compared with LPS treatment group: 54.30%
IL-6; 10 μM
  IL-6 mRNA expression, Fold (value compared with a negative group): 8.57 ± 1.23 Fold
  IL-6 mRNA expression, Inhibition ratio (IR) compared with LPS treatment group: 72.50%
IL-6; 20 μM
  IL-6 mRNA expression, Fold (value compared with a negative group): 2.35 ± 0.81 Fold
  IL-6 mRNA expression, Inhibition ratio (IR) compared with LPS treatment group: 92.46%
IL-6; [2]
  expressed level of mRNA of IL-6: significantly decreased in a dose dependent manner
RAW264.7 cell
  cytotoxicity in RAW264.7 cell: did not show cytotoxicity
[1]; 2.5 μM, 24 hours, vs negative control 0.2% DMSO, read-out: RAW264.7 cell viability (%, mean ± variation)
  viability at 24 h, 2.5 µM: 99.6 ± 3.66%
[1]; 5 μM, 24 hours, vs negative control 0.2% DMSO, read-out: RAW264.7 cell viability (%, mean ± variation)
  viability at 24 h, 5 µM: 99.3 ± 5.68%
[1]; 10 μM, 24 hours, vs negative control 0.2% DMSO, read-out: RAW264.7 cell viability (%, mean ± variation)
  viability at 24 h, 10 µM: 98.2 ± 3.28%
[1]; 20 μM, 24 hours, vs negative control 0.2% DMSO, read-out: RAW264.7 cell viability (%, mean ± variation)
  viability at 24 h, 20 µM: 94.7 ± 3.03%
[1]; 40 μM, 24 hours, vs negative control 0.2% DMSO, read-out: RAW264.7 cell viability (%, mean ± variation)
  viability at 24 h, 40 µM: 97.2 ± 7%
[1]; 80 μM, 24 hours, vs negative control 0.2% DMSO, read-out: RAW264.7 cell viability (%, mean ± variation)
  viability at 24 h, 80 µM: 95.1 ± 2.73%
[1]; at less than 80 μM
  viability at 24 h: > 95%
